According to the NIST ThermoML archive (doi:10.1016/j.jct.2015.03.001):
± gives the expanded uncertainty stated by the source.

How the values were obtained:
[1] = refractive index (Na D-line) (dimensionless); xn = mol fraction of the nth substance listed; conditions: 99 kPa, Liquid, Abbe refractometer
[2] = relative permittivity at various frequencies (dimensionless); xn = mol fraction of the nth substance listed; conditions: 99 kPa, Liquid, Frequency=2 MHz, Parallel plate capacitor

CC(C)CCl [1-chloro-2-methylpropane] + CCCCCC
refractive index ([1]; 283.15 K, x2 = 0): 1.40354 ± 0.00031 | refractive index ([1]; 283.15 K, x2 = 0.0484): 1.40197 ± 0.00031 | refractive index ([1]; 283.15 K, x2 = 0.0984): 1.40039 ± 0.00031 | refractive index ([1]; 283.15 K, x2 = 0.2052): 1.39725 ± 0.00031 | refractive index ([1]; 283.15 K, x2 = 0.3044): 1.39452 ± 0.00031 | refractive index ([1]; 283.15 K, x2 = 0.4034): 1.39199 ± 0.00031 | refractive index ([1]; 283.15 K, x2 = 0.5052): 1.38961 ± 0.00031 | refractive index ([1]; 283.15 K, x2 = 0.6134): 1.38726 ± 0.00031 | refractive index ([1]; 283.15 K, x2 = 0.7019): 1.38551 ± 0.00031 | refractive index ([1]; 283.15 K, x2 = 0.8082): 1.38355 ± 0.00031 | refractive index ([1]; 283.15 K, x2 = 0.908): 1.38189 ± 0.00031 | refractive index ([1]; 283.15 K, x2 = 0.9475): 1.38129 ± 0.00031 | refractive index ([1]; 298.15 K, x2 = 0): 1.39529 ± 0.00031 | refractive index ([1]; 298.15 K, x2 = 0.0484): 1.39371 ± 0.00031 | refractive index ([1]; 298.15 K, x2 = 0.0984): 1.39212 ± 0.00031 | refractive index ([1]; 298.15 K, x2 = 0.2052): 1.38895 ± 0.00031 | refractive index ([1]; 298.15 K, x2 = 0.3044): 1.3862 ± 0.00031 | refractive index ([1]; 298.15 K, x2 = 0.4034): 1.38367 ± 0.00031 | refractive index ([1]; 298.15 K, x2 = 0.5052): 1.3813 ± 0.00031 | refractive index ([1]; 298.15 K, x2 = 0.6134): 1.37897 ± 0.00031 | refractive index ([1]; 298.15 K, x2 = 0.7019): 1.37722 ± 0.00031 | refractive index ([1]; 298.15 K, x2 = 0.8082): 1.37526 ± 0.00031 | refractive index ([1]; 298.15 K, x2 = 0.908): 1.3736 ± 0.00031 | refractive index ([1]; 298.15 K, x2 = 0.9475): 1.37301 ± 0.00031 | refractive index ([1]; 313.15 K, x2 = 0): 1.38683 ± 0.00031 | refractive index ([1]; 313.15 K, x2 = 0.0484): 1.38526 ± 0.00031 | refractive index ([1]; 313.15 K, x2 = 0.0984): 1.38366 ± 0.00031 | refractive index ([1]; 313.15 K, x2 = 0.2052): 1.38049 ± 0.00031 | refractive index ([1]; 313.15 K, x2 = 0.3044): 1.37775 ± 0.00031 | refractive index ([1]; 313.15 K, x2 = 0.4034): 1.37523 ± 0.00031 | refractive index ([1]; 313.15 K, x2 = 0.5052): 1.37287 ± 0.00031 | refractive index ([1]; 313.15 K, x2 = 0.6134): 1.37057 ± 0.00031 | refractive index ([1]; 313.15 K, x2 = 0.7019): 1.36883 ± 0.00031 | refractive index ([1]; 313.15 K, x2 = 0.8082): 1.3669 ± 0.00031 | refractive index ([1]; 313.15 K, x2 = 0.908): 1.36525 ± 0.00031 | refractive index ([1]; 313.15 K, x2 = 0.9475): 1.36468 ± 0.00031 | relative permittivity ([2]; 283.15 K, x2 = 0): 7.472 ± 0.075 | relative permittivity ([2]; 283.15 K, x2 = 0.0482): 7.14 ± 0.071 | relative permittivity ([2]; 283.15 K, x2 = 0.1006): 6.784 ± 0.068 | relative permittivity ([2]; 283.15 K, x2 = 0.1985): 6.106 ± 0.061 | relative permittivity ([2]; 283.15 K, x2 = 0.2966): 5.432 ± 0.054 | relative permittivity ([2]; 283.15 K, x2 = 0.3985): 4.768 ± 0.048 | relative permittivity ([2]; 283.15 K, x2 = 0.5036): 4.142 ± 0.041 | relative permittivity ([2]; 283.15 K, x2 = 0.5998): 3.626 ± 0.036 | relative permittivity ([2]; 283.15 K, x2 = 0.6993): 3.149 ± 0.032 | relative permittivity ([2]; 283.15 K, x2 = 0.8028): 2.707 ± 0.027 | relative permittivity ([2]; 283.15 K, x2 = 0.9002): 2.315 ± 0.023 | relative permittivity ([2]; 283.15 K, x2 = 0.9462): 2.129 ± 0.021 | relative permittivity ([2]; 298.15 K, x2 = 0): 7.074 ± 0.071 | relative permittivity ([2]; 298.15 K, x2 = 0.0482): 6.773 ± 0.068 | relative permittivity ([2]; 298.15 K, x2 = 0.1006): 6.442 ± 0.064 | relative permittivity ([2]; 298.15 K, x2 = 0.1985): 5.816 ± 0.058 | relative permittivity ([2]; 298.15 K, x2 = 0.2966): 5.191 ± 0.052 | relative permittivity ([2]; 298.15 K, x2 = 0.3985): 4.573 ± 0.046 | relative permittivity ([2]; 298.15 K, x2 = 0.5036): 3.991 ± 0.04 | relative permittivity ([2]; 298.15 K, x2 = 0.5998): 3.513 ± 0.035 | relative permittivity ([2]; 298.15 K, x2 = 0.6993): 3.064 ± 0.031 | relative permittivity ([2]; 298.15 K, x2 = 0.8028): 2.648 ± 0.026 | relative permittivity ([2]; 298.15 K, x2 = 0.9002): 2.278 ± 0.023 | relative permittivity ([2]; 298.15 K, x2 = 0.9462): 2.102 ± 0.021 | relative permittivity ([2]; 313.15 K, x2 = 0): 6.657 ± 0.067 | relative permittivity ([2]; 313.15 K, x2 = 0.0482): 6.385 ± 0.064 | relative permittivity ([2]; 313.15 K, x2 = 0.1006): 6.082 ± 0.061 | relative permittivity ([2]; 313.15 K, x2 = 0.1985): 5.506 ± 0.055 | relative permittivity ([2]; 313.15 K, x2 = 0.2966): 4.929 ± 0.049 | relative permittivity ([2]; 313.15 K, x2 = 0.3985): 4.358 ± 0.044 | relative permittivity ([2]; 313.15 K, x2 = 0.5036): 3.82 ± 0.038 | relative permittivity ([2]; 313.15 K, x2 = 0.5998): 3.38 ± 0.034 | relative permittivity ([2]; 313.15 K, x2 = 0.6993): 2.966 ± 0.03 | relative permittivity ([2]; 313.15 K, x2 = 0.8028): 2.579 ± 0.026 | relative permittivity ([2]; 313.15 K, x2 = 0.9002): 2.232 ± 0.022 | relative permittivity ([2]; 313.15 K, x2 = 0.9462): 2.068 ± 0.021
